Some test systems named below: ACHN renal; EKVX NSCLC; HOP-62 NSCLC; IGROV1 ovarian; KM12 colon; M14 melanoma; MALME-3M melanoma; TK-10 renal.
Experiment in all cases: NCI-60 cell line screen, 48 h

“And” between values parts separate entries of the source, which are not always exact repeats. Equal entries are not always repeated.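 Where inhibition never reached the appropriate level, the endpoint shown equals the highest concentration tested. Otherwise, values were interpolated linearly from a five-concentration, 48-hour dose response in 96-well plates. At the GI50, growth is halved. The concentration for full growth arrest is given as TGI.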

In the case of `CN(C)CCCOc1ccc(-c2ccc3ncc4c(c3c2)n(C2CCOCC2)c(=O)n4C)cn1`, the GI50 in the test on ACHN renal is 2 µM; in the test with EKVX NSCLC, 0.975 µM; in the test on HOP-62 NSCLC it was 1.87 µM; with IGROV1 ovarian it was 0.454 µM; with KM12 colon, 3.16 µM; in the test with M14 melanoma, 1.78 µM. In addition, the GI50 in the test with MALME-3M melanoma is 0.354 µM; with TK-10 renal, 0.286 µM. The TGI in the test with ACHN renal worked out at 12.6 µM; in the test on EKVX NSCLC, 12.2 µM; in the test on HOP-62 NSCLC, 12.5 µM; in the test with IGROV1 ovarian, 5.6 µM; in the test with KM12 colon, 16.4 µM; in the test on M14 melanoma it was 13.8 µM. Moreover, the values for the TGI in the test with MALME-3M melanoma and in the test on TK-10 renal were 3.41 µM and 2.91 µM, respectively.

As for `COc1cc(C#Cc2ccc(=O)oc2C#Cc2ccccc2)cc(OC)c1OC`, the GI50 in the test with ACHN renal is 2.13 µM; with EKVX NSCLC, 5.32 µM; in the test on HOP-62 NSCLC, 12.2 µM; in the test on IGROV1 ovarian it was 2.18 µM; in the test with KM12 colon, 15.1 µM; with M14 melanoma, 2.38 µM. In addition, the GI50 with MALME-3M melanoma was 2.99 µM; with TK-10 renal it was 4.57 µM. The TGI in the test with ACHN renal came out at 4.23 µM; in the test on EKVX NSCLC it was 13.4 µM; in the test with HOP-62 NSCLC, 30.9 µM; with IGROV1 ovarian it was 5.7 µM; in the test with KM12 colon, 44.8 µM; in the test with M14 melanoma it was 5.98 µM. Besides, the TGI in the test with MALME-3M melanoma stood at 7.21 µM; with TK-10 renal it was 13 µM.

In the case of `O=C(CO[N+](=O)[O-])Nc1ccc(C(=O)/C=C/c2ccc(Cl)cc2)cc1`, the GI50 is 3.3 µM in the test on ACHN renal; 15 µM with EKVX NSCLC; 3.11 µM with HOP-62 NSCLC; 13.4 µM with IGROV1 ovarian; 1.54 µM in the test with KM12 colon; 2.05 µM with M14 melanoma. Besides, the values for the GI50 with MALME-3M melanoma and with TK-10 renal were 2.13 µM and 8.37 µM, respectively. For the same compound, the TGI in the test with ACHN renal stood at 17 µM; in the test on EKVX NSCLC, 74.6 µM; in the test with HOP-62 NSCLC, 9.73 µM; with IGROV1 ovarian, 30 µM; in the test with KM12 colon it was 3.1 µM; in the test with M14 melanoma it was 4.96 µM. Further, the TGI in the test on MALME-3M melanoma was found to be 6.61 µM; in the test with TK-10 renal, 25.1 µM.

Turning to `COc1cc(NC(N)=NCCC(C)(C)Oc2ccc(C(F)(F)F)cc2)ncc1C#N`, the GI50 with ACHN renal is 1.7 µM; with EKVX NSCLC, 1.45 µM; in the test with HOP-62 NSCLC it was 1.75 µM; in the test on IGROV1 ovarian it was 1.8 µM; with KM12 colon, 1.68 µM; in the test with M14 melanoma, 1.62 µM. Besides, the values for the GI50 in the test with MALME-3M melanoma and in the test with TK-10 renal were 1.81 µM and 1.54 µM, respectively. Moreover, the TGI in the test on ACHN renal amounted to 3.06 µM; with EKVX NSCLC it was 2.85 µM; with HOP-62 NSCLC it was 3.2 µM; in the test with IGROV1 ovarian, 3.48 µM; with KM12 colon, 3.17 µM; with M14 melanoma, 3.11 µM. Moreover, the TGI with MALME-3M melanoma turned out to be 3.44 µM; with TK-10 renal, 2.91 µM.

Take `CC(C)CCC(=O)c1ccoc1`: the TGI in the test with ACHN renal, in the test on EKVX NSCLC, in the test with HOP-62 NSCLC, in the test with IGROV1 ovarian, with KM12 colon and with M14 melanoma was > 100 µM throughout. Besides, the TGI in the test with MALME-3M melanoma and with TK-10 renal was > 100 µM in each case.

In the case of `FC(F)(F)c1nc2nc(Cl)c(Cl)nc2n1CCCN1CCOCC1`, the TGI is > 100 µM in the test with ACHN renal; 50.5 µM in the test on EKVX NSCLC; > 100 µM in the test on HOP-62 NSCLC; > 100 µM in the test with IGROV1 ovarian; > 100 µM with KM12 colon; > 100 µM in the test on M14 melanoma. For the same compound, the TGI in the test with MALME-3M melanoma and with TK-10 renal was > 100 µM in each case.

For the compound `CCc1cccc(C)c1NC(=O)c1sc2nc3c(cc2c1N)CCCCC3`, the GI50 in the test with ACHN renal was 7.45 µM; in the test with EKVX NSCLC it was 4.17 µM; in the test with HOP-62 NSCLC, 4.34 µM; in the test with IGROV1 ovarian, 5.13 µM; in the test with KM12 colon, 3.46 µM; with M14 melanoma it was 2.53 µM. For the same compound, the GI50 is 9.11 µM in the test with MALME-3M melanoma and 13.4 µM in the test on TK-10 renal. In addition, the TGI in the test with ACHN renal, in the test on EKVX NSCLC, in the test on HOP-62 NSCLC, in the test on IGROV1 ovarian, in the test with KM12 colon and in the test with M14 melanoma was > 100 µM in each case. In addition, the figures for the TGI in the test with MALME-3M melanoma and in the test with TK-10 renal were 84.4 µM and > 100 µM, respectively.

As for `CC[N+](CC)=c1sc2c(s1)C(c1ccc(Cl)cc1)Oc1ccc(Cl)cc1-2` (stereo not drawn), the GI50 was 11.3 µM with ACHN renal; 1.96 µM in the test on EKVX NSCLC; 1.22 µM in the test with HOP-62 NSCLC; 1.6 µM in the test on IGROV1 ovarian; 0.456 µM in the test on KM12 colon; 1.86 µM with M14 melanoma. In addition, the GI50 in the test with MALME-3M melanoma was 1.44 µM; in the test with TK-10 renal, 3.38 µM. Besides, the TGI was found to be 23.9 µM in the test on ACHN renal; 9.53 µM with EKVX NSCLC; 5.56 µM in the test with HOP-62 NSCLC; 10.7 µM in the test on IGROV1 ovarian; 1.91 µM in the test on KM12 colon; 4 µM in the test on M14 melanoma. The TGI in the test with MALME-3M melanoma was 3.88 µM; in the test on TK-10 renal, 6.61 µM.

As for `Cc1cnc(NC(=O)Nc2cc(Br)c(C)cc2OC[C@@H]2CNCCO2)cn1`, the GI50 with ACHN renal is 0.319 µM and 0.225 µM; in the test with EKVX NSCLC, 3.22 µM and 3.24 µM; with HOP-62 NSCLC, 0.539 µM and 1.65 µM; with IGROV1 ovarian it was 0.979 µM and 1.36 µM; in the test with KM12 colon, 1.2 µM and 1.19 µM; with M14 melanoma it was 0.338 µM and 0.311 µM. For the same compound, the GI50 with MALME-3M melanoma is 1.63 µM and 1.94 µM; in the test with TK-10 renal, 0.703 µM and 2.18 µM. In addition, the TGI in the test on EKVX NSCLC is > 10 µM and 15.9 µM; in the test with HOP-62 NSCLC, > 10 µM and 14.2 µM; in the test with IGROV1 ovarian it was > 10 µM and 17 µM; in the test on KM12 colon it was > 10 µM and 11.9 µM; in the test with M14 melanoma it was 1.37 µM and 0.999 µM; with MALME-3M melanoma it was > 10 µM and 6.55 µM. The TGI in the test on TK-10 renal was > 10 µM and 16.6 µM.

`Cc1nc(SCC(=O)Nc2nc(-c3ccc(Cl)cc3)cs2)n(Nc2ccccc2)c1C`: the GI50 is 3.67 µM in the test with ACHN renal; 1.84 µM in the test with EKVX NSCLC; 3.06 µM with HOP-62 NSCLC; 3.36 µM with IGROV1 ovarian; 2.95 µM with KM12 colon; 3.69 µM in the test on M14 melanoma. The GI50 in the test with MALME-3M melanoma was 10.8 µM; in the test with TK-10 renal, 3.65 µM. For the same compound, the TGI was determined as 14.1 µM in the test with ACHN renal; 12.2 µM with EKVX NSCLC; 9.63 µM in the test on HOP-62 NSCLC; 20.6 µM in the test with IGROV1 ovarian; 14 µM with KM12 colon; 16 µM with M14 melanoma. Besides, the TGI stood at 37.6 µM in the test on MALME-3M melanoma and 13.8 µM in the test with TK-10 renal.
